From ChEMBL document CHEMBL1139045, “Design and synthesis of a novel class of dual PPARgamma/delta agonists” (Bioorg Med Chem Lett, 2007)

How the values were obtained:
[1] = target: T1, Peroxisome proliferator-activated receptor alpha (Homo sapiens, UniProt Q07869)
T1 sequence (Q07869 whole entry): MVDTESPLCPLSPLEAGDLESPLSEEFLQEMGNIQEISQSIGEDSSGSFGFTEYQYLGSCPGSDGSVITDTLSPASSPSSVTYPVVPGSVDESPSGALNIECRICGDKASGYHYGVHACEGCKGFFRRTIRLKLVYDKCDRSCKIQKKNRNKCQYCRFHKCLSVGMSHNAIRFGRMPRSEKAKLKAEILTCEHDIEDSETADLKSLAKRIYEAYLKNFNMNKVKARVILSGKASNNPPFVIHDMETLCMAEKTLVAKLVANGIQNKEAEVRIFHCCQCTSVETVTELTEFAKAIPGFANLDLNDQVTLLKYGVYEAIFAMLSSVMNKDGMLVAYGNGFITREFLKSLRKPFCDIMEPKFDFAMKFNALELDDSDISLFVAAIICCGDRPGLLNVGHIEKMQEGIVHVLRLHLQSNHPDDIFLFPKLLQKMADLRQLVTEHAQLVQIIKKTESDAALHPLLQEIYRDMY

[2] = target: T1, Peroxisome proliferator-activated receptor alpha; type: functional, cell-based, CV-1
[3] = target: T2, Peroxisome proliferator-activated receptor delta (Homo sapiens, UniProt Q03181)
T2 sequence (Q03181 whole entry): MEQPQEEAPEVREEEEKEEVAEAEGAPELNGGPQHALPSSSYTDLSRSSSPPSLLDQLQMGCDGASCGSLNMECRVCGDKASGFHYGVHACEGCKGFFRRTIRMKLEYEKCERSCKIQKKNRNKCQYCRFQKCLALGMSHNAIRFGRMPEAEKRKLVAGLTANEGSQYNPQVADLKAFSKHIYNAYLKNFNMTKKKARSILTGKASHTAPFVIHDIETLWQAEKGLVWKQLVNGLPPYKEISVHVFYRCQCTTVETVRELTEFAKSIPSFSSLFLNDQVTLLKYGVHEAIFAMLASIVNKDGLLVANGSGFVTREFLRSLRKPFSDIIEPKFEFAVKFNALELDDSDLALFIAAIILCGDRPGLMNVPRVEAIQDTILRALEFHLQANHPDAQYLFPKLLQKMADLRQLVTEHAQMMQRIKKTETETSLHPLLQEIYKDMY

[4] = target: T2, Peroxisome proliferator-activated receptor delta; type: functional, cell-based, CV-1
in vivo [5] = settings: db/db, mouse
in vivo [6] = settings: Sprague-Dawley, rat, po, 12 mg/kg
in vivo [7] = settings: Sprague-Dawley, rat, iv, 1 mg/kg
in vivo [8] = settings: Sprague-Dawley, rat, po, 12 mg/kg; remark: listed apart in the source
in vivo [9] = settings: Sprague-Dawley, rat, po, 12 mg/kg; remark: listed apart in the source

Row | Compound | IC50 [1] [nM] | EC50 [2] [nM] | IC50 [3] [nM] | EC50 [4] [nM] | other results
1 | CCc1ccc(O[C@H](C)CCOc2ccc(CCC(=O)O)c(C)c2)c(-c2cocn2)c1 | 4990 | 2810 | – | – | –
2 | CCc1ccc(O[C@H](C)CCOc2ccc(CCC(=O)O)c(C)c2)c(-c2ccsc2)c1 | 5950 | – | – | – | –
3 | CCc1ccc(O[C@H](C)CCOc2ccc(CCC(=O)O)c(C)c2)c(-c2ccco2)c1 | 4500 | 2800 | – | – | –
4 | CCc1ccc(O[C@H](C)CCOc2ccc(CCC(=O)O)c(C)c2)c(-c2cscn2)c1 | 4100 | 2680 | – | – | –
5 | CCc1ccc(O[C@H](C)CCOc2ccc(CCC(=O)O)c(C)c2)c(-c2ncco2)c1 | 10400 | 2890 | – | – | –
6 | Cc1cc(OCC[C@@H](C)Oc2ccc(C(F)(F)F)cc2-c2ccccn2)ccc1CCC(=O)O | 5880 | 2340 | 4 | 6 | –
7 | CCc1cc(OCC[C@@H](C)Oc2ccc(C(F)(F)F)cc2-c2ccccn2)ccc1CCC(=O)O | 6090 | 2630 | 3 | 6 | concentration at 1 h (in vivo [5]): 4200 ng/mL
8 | CCc1ccc(O[C@H](C)CCOc2ccc(CCC(=O)O)c(CC)c2)c(-c2ccccn2)c1 | 7350 | – | 3 | 7 | AUC (in vivo [6]): 75500 ng·h/mL; clearance (in vivo [7]): 1.9 mL/min/kg; bioavailability (in vivo [8]): 71%; half-life (in vivo [9]): 3 h
9 | CCc1ccc(O[C@H](C)CCOc2ccc(CCC(=O)O)c(C)c2)c(-c2cccnc2)c1 | – | 2900 | – | – | –
